According to US11932601B2, “Immunoregulatory agents” (FLEXUS BIOSCIENCES, INC., priority 2014, dated 2024):

Molecular target: T1, human IDO1 (Homo sapiens, UniProt P14902)
T1 construct: expressed in transfected cells
Experiment: HEK293 cells stably expressing human IDO1, IDO inhibition assay (kynurenine, Ehrlich reagent, absorbance 490 nm)
Assay type: cell-based
Details: 20 hours incubation, 500 nM reference standard = 100% inhibition, read-out: HEK Human IDO-1 Biological Activity (IC50)
Procedure: HEK293 cells were transfected with a pCDNA-based mammalian expression vector harboring human IDO1 cDNA (NM 002164.2) by electroporation. They were cultured in medium (DMEM with 10% FBS) containing 1 mg/ml G418 for two weeks. Clones of HEK293 cells that stably expressed human IDO1 protein were selected and expanded for IDO inhibition assay.
The human IDO1/HEK293 cells were seeded at 10,000 cells per 50 μL per well with RPMI/phenol red free media contains 10% FBS in a 384-well black wall clear bottom tissue culture plate (Matrix Technologies LLC) 100 nL of certain concentration of compound was then added to each well using ECHO liquid handling systems. The cells were incubated for 20 hours in 37° C. incubator with 5% CO2.
The compound treatments were stopped by adding Trichloroacetic Acid (Sigma-Aldrich) to a final concentration at 0.2%. The cell plate was further incubated at 50° C. for 30 minute. The equal volume supernatant […] and 0.2% (w/v) Ehrlich reagent (4-dimethylaminobenzaldehyde, Sigma-Aldrich) in glacial acetic acid were mixed in a new clear bottom 384-well plate. This plate was then incubated at room temperature for 30 minute. The absorbance at 490 nm was measured on Envision plate reader.

T1 sequence (P14902 whole entry): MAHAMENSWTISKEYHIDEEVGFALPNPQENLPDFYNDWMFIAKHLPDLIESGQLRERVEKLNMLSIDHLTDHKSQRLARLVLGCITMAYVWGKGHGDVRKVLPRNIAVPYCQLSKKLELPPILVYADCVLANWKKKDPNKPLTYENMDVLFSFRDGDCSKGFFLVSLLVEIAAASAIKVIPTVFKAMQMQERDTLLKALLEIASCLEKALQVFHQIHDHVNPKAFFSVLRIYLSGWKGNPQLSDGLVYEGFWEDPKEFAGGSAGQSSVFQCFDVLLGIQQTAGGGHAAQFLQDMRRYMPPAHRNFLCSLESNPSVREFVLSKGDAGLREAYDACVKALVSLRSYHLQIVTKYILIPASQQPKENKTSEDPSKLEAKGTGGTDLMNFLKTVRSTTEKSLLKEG

Going from `Cc1cc(C2CCC(C(C)C(=O)Nc3ccc(Cl)cc3)CC2)cc(C)n1` (single isomer, unassigned) [Example 308a, N-(4-chlorophenyl)-2-(4-(2,6-dimethylpyridin-4-yl)cyclohexyl) propanamide] to `Cc1nccc(C2CCC(C(C)C(=O)Nc3ccc(Cl)cc3)CC2)n1` (stereo not drawn) [Example 319b, N-(4-chlorophenyl)-2-(4-(2-methylpyrimidin-4-yl)cyclohexyl) propanamide], the IC50 rises from under 250 nM to over 250 nM. The first is the more potent here.

`CC(=O)Nc1cc(C2CCC(C(C)C(=O)Nc3ccc(Cl)cc3)CC2)ccn1` (single isomer, unassigned) [Example 315b, 2-(4-(2-acetamidopyridin-4-yl)cyclohexyl)-N-(4-chlorophenyl) propanamide] and `COc1cc([C@H]2CC[C@@H]([C@H](C)C(=O)Nc3ccc(Cl)cc3)CC2)ccn1` (single isomer, unassigned) [Example 307f, N-(4-Chlorophenyl)-2-(4-(2-methoxypyridin-4-yl)cyclohexyl)propanamide] cannot be ordered by IC50: under 50 nM for the first, under 50 nM for the second.

`CC(C(=O)Nc1ccc(Cl)cc1)C1CCC(c2ccncc2F)CC1` (single isomer, unassigned) [Example 318e, N-(4-chlorophenyl)-2-(4-(3-fluoropyridin-4-yl)cyclohexyl) propanamide] and `Cc1c(C2CCC(C(C)C(=O)Nc3ccc(Cl)cc3)CC2)ccnc1F` (single isomer, unassigned) [Example 310a, (+/−)N-(4-chlorophenyl)-2-(4-(2-fluoro-3-methylpyridin-4-yl)cyclohexyl) propanamide] cannot be ordered by IC50: under 50 nM for the first, under 50 nM for the second.

Going from `CC(C(=O)Nc1ccc(Cl)cc1)C1CCC(c2cccc(-c3ccccc3)c2)CC1` (single isomer, unassigned) [Example 317b, 2-(4-([1,1′-biphenyl]-3-yl)cyclohexyl)-N-(4-chlorophenyl) propanamide] to `CC(C(=O)Nc1ccc(Cl)cc1)C1CCC(c2ccnnc2)CC1` (single isomer, unassigned) [Example 316b, N-(4-chlorophenyl)-2-(4-(pyridazin-4-yl)cyclohexyl) propanamide], the IC50 rises from under 50 nM to over 250 nM. The first is the more potent here.

Compared with `CC(C(=O)Nc1ccc(Cl)cc1)C1CCC(c2ccncc2F)CC1` (single isomer, unassigned) [Example 318d, N-(4-chlorophenyl)-2-(4-(3-fluoropyridin-4-yl)cyclohexyl) propanamide], `CC(C(=O)Nc1ccc(Cl)cc1)C1CCC(c2ccnnc2)CC1` (single isomer, unassigned) [Example 316a, N-(4-chlorophenyl)-2-(4-(pyridazin-4-yl)cyclohexyl) propanamide] is higher in IC50: under 250 nM for the first, over 250 nM for the second. The first is the more potent here.

`Cc1cc(C2CCC(C(C)C(=O)Nc3ccc(Cl)cc3)CC2)cc(C)n1` (single isomer, unassigned) [Example 308c, N-(4-chlorophenyl)-2-(4-(2,6-dimethylpyridin-4-yl)cyclohexyl) propanamide] and `CC(C(=O)Nc1ccc(Cl)cc1)C1CCC(c2ccncc2F)CC1` (single isomer, unassigned) [Example 318c, N-(4-chlorophenyl)-2-(4-(3-fluoropyridin-4-yl)cyclohexyl) propanamide] cannot be ordered by IC50: over 250 nM for the first, over 250 nM for the second.

`CC1(CC(=O)NC2(C)CCCCC2)CCN(c2ccnc(C(F)(F)F)c2)CC1` [Example 322, 2-(4-Methyl-1-(2-(trifluoromethyl)pyridin-4-yl)piperidin-4-yl)-N-(1-methylcyclohexyl)acetamide] and `CCC(C(=O)Nc1ccc(Cl)cc1)[C@H]1CC[C@@H](Oc2ccncc2)CC1` (single isomer, unassigned) [Example 306b, N-(4-Chlorophenyl)-2-(cis-4-(pyridin-4-yloxy)cyclohexyl)butanamide] cannot be ordered by IC50: over 250 nM for the first, over 250 nM for the second.

`CC(C(=O)Nc1ccc(Cl)cc1)C1CCC(c2cccc(-c3ccccc3)c2)CC1` (single isomer, unassigned) [Example 317a, 2-(4-([1,1′-biphenyl]-3-yl)cyclohexyl)-N-(4-chlorophenyl) propanamide] showed an IC50 of under 50 nM.
